Data reported in US9492471B2, “Methods of treating a disease or disorder associated with Bruton'S Tyrosine Kinase” (Celgene Avilomics Research, Inc., priority 2013, dated 2016).
Like-named read-outs stand apart in the source and are kept apart here.

Experiments:
Experiment in all cases: HotSpot kinase profiling
Assay type in all cases: biochemical
CDK7/cyclin H = target: T1, CDK7/cyclin H (Homo sapiens, UniProt P50613)
T1 construct: purchased Reaction Biology Corp
Procedure, shortened: (§1)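 Radio-isotope P81 filtration format. Substrate + required cofactors in reaction buffer, kinase added, 2 h RT. Stop, wash with 0.1% phosphoric acid, detect. % inhibition vs DMSO; mean of duplicates where repeated.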

ERK5/MAPK7 = target: T2, ERK5/MAPK7 (Homo sapiens, UniProt Q13164)
T2 construct: purchased Reaction Biology Corp
T2 sequence (Q13164 whole entry): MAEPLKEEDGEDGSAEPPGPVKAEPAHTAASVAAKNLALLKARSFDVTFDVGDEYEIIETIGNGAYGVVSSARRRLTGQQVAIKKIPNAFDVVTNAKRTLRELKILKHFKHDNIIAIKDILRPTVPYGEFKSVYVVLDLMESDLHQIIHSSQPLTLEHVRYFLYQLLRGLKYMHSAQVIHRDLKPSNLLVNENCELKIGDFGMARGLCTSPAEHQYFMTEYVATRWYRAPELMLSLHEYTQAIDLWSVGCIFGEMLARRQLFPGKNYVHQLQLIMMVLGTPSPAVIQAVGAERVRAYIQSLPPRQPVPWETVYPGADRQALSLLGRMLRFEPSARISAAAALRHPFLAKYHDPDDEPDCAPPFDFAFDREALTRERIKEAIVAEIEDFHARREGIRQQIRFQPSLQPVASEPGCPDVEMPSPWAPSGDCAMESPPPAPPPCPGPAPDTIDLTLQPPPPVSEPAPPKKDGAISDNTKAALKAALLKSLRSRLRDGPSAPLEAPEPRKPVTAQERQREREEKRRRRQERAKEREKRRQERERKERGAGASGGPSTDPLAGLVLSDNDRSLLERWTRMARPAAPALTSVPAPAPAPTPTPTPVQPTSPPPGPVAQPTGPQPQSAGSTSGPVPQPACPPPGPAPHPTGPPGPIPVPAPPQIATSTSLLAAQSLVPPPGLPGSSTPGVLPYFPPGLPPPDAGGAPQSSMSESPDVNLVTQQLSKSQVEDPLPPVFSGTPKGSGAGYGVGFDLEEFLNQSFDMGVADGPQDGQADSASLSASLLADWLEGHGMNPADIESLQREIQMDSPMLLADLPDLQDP
Procedure, shortened: as §1

JAK2 = target: T3, JAK2 (Homo sapiens, UniProt O60674)
T3 construct: purchased Reaction Biology Corp
T3 sequence (O60674 whole entry): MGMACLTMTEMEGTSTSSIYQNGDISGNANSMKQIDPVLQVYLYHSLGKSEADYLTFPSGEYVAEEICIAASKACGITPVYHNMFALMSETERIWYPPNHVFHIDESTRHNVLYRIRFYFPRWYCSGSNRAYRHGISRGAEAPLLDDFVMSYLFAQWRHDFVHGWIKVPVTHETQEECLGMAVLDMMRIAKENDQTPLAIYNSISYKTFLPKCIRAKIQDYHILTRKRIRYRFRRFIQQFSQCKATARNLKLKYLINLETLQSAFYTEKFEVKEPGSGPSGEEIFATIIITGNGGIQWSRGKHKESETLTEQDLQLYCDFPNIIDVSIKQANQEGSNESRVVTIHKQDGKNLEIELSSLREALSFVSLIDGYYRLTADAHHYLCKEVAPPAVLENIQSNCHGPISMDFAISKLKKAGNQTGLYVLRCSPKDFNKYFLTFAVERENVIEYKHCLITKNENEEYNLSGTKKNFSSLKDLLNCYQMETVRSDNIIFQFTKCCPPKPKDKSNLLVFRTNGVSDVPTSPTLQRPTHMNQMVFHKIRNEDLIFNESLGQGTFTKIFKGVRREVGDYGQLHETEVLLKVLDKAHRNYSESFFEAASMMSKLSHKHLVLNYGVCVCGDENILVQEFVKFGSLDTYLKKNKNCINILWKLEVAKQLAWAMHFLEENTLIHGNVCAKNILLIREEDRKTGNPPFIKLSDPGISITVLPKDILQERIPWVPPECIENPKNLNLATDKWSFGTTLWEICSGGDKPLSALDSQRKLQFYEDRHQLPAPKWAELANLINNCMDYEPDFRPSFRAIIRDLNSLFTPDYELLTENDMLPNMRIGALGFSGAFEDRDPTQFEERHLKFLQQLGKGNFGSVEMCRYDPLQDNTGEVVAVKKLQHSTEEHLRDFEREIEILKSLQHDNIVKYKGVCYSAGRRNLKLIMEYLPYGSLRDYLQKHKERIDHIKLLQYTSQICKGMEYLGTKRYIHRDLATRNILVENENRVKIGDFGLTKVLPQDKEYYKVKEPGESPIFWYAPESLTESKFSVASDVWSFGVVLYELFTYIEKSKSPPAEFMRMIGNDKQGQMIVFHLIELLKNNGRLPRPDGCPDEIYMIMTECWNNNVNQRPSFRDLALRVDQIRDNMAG
Procedure, shortened: as §1

JAK3 = target: T4, JAK3 (Homo sapiens, UniProt P52333)
T4 construct: purchased Reaction Biology Corp
T4 sequence (P52333 1-1124): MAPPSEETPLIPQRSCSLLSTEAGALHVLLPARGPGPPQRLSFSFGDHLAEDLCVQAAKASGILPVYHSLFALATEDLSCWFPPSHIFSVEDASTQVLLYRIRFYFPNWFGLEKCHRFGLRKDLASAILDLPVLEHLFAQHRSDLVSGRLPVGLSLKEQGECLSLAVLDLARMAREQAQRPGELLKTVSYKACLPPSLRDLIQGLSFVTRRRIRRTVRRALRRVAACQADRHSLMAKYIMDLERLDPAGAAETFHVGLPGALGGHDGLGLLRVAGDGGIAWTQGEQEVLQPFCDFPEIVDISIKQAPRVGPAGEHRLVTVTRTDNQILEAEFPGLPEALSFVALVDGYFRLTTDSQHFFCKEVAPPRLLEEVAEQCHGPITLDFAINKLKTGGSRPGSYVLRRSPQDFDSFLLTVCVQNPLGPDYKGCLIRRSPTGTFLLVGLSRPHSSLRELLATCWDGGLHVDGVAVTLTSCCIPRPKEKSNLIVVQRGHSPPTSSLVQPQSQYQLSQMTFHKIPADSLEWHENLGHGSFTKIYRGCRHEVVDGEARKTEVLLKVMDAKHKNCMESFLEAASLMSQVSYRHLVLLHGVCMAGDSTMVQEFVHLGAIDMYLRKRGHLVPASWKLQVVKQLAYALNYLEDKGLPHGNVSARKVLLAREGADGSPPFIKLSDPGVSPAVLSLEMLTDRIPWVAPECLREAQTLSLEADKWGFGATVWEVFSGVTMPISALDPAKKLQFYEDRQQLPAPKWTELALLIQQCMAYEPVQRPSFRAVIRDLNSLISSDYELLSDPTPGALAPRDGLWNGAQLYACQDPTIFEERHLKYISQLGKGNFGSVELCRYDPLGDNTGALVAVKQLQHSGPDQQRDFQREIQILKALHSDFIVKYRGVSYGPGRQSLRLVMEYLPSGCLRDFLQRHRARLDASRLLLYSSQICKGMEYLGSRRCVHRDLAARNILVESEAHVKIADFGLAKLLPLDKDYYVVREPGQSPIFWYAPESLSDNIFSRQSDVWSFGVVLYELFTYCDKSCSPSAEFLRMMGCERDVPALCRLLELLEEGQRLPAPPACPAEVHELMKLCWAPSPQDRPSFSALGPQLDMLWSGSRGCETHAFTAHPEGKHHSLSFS
Procedure, shortened: as §1

NEK6 = target: T5, NEK6 (Homo sapiens, UniProt Q9HC98)
T5 construct: purchased Reaction Biology Corp
T5 sequence (Q9HC98 whole entry): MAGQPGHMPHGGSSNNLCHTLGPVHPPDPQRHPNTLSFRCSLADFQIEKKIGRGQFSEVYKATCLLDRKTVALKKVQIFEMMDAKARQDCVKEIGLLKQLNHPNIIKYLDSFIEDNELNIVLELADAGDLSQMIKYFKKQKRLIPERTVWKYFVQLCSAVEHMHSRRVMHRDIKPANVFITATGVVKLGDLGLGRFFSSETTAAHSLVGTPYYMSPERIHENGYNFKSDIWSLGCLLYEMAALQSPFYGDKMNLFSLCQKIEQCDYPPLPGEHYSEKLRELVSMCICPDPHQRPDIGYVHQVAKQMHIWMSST
Procedure, shortened: as §1

SIK3 = target: T6, SIK3 (Homo sapiens, UniProt Q9Y2K2)
T6 construct: purchased Reaction Biology Corp
T6 sequence (Q9Y2K2 whole entry): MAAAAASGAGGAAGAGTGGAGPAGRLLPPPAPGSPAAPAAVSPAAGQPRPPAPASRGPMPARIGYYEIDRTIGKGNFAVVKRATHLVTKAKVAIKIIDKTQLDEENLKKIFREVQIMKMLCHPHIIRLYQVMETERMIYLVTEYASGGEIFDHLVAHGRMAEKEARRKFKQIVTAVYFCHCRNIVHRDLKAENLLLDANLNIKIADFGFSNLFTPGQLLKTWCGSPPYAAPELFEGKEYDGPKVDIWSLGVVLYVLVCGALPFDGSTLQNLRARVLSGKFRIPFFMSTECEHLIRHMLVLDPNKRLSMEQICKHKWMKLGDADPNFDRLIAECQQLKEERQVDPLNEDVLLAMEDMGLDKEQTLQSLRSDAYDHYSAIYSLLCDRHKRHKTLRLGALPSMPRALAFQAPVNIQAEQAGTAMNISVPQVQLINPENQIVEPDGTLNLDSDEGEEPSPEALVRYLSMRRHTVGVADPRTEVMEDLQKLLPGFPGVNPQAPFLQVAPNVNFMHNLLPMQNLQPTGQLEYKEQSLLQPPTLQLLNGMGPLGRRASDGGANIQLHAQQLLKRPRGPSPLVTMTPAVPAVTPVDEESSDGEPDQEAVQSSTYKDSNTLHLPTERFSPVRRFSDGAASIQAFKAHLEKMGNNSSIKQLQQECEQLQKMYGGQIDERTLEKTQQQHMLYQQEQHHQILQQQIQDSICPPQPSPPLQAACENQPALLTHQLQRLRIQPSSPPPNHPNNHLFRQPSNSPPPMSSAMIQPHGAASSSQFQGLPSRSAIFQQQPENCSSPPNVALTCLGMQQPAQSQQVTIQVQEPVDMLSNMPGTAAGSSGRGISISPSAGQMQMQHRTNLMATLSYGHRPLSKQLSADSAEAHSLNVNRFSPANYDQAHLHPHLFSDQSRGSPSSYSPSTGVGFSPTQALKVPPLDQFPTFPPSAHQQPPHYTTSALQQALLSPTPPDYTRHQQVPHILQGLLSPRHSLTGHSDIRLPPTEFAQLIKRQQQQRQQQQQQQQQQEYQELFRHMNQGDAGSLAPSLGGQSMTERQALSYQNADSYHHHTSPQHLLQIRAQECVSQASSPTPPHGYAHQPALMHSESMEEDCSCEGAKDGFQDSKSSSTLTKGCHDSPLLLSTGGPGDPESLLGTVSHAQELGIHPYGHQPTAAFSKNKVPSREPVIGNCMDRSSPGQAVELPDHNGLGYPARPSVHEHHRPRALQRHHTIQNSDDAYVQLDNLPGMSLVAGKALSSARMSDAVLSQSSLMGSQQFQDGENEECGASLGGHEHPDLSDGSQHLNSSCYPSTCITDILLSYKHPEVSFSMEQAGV
Procedure, shortened: as §1

STK38/NDR1 = target: T7, STK38/NDR1 (Homo sapiens, UniProt Q15208)
T7 construct: purchased Reaction Biology Corp
T7 sequence (Q15208 whole entry): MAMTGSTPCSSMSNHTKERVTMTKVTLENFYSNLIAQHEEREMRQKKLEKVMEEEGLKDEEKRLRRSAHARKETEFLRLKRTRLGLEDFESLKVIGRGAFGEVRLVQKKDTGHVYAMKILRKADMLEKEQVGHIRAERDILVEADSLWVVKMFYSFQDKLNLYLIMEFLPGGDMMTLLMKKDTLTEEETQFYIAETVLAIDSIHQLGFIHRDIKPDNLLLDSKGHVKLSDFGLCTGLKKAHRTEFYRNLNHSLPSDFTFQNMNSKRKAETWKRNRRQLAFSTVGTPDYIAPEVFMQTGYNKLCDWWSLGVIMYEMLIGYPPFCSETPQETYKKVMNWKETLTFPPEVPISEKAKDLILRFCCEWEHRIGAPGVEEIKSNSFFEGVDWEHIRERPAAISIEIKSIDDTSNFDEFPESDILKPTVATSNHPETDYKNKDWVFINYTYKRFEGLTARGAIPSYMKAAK
Procedure, shortened: as §1

TAK1 = target: T8, TAK1 (Homo sapiens, UniProt O43318)
T8 construct: purchased Reaction Biology Corp
T8 sequence (O43318 1-303 limits assumed): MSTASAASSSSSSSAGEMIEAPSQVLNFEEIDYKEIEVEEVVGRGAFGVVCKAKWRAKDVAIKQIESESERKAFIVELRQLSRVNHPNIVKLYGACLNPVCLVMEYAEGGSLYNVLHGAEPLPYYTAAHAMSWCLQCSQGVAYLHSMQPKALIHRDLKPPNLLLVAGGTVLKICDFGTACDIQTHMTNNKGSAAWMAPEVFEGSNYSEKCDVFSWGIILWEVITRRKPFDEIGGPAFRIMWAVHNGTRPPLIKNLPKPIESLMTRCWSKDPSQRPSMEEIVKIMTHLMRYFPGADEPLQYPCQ
Procedure, shortened: as §1

[1] = read-out: % Enzyme Activity (relative to DMSO controls) Run 1
[2] = read-out: % Enzyme Activity (relative to DMSO controls) Run 2

T1 sequence (P50613 whole entry): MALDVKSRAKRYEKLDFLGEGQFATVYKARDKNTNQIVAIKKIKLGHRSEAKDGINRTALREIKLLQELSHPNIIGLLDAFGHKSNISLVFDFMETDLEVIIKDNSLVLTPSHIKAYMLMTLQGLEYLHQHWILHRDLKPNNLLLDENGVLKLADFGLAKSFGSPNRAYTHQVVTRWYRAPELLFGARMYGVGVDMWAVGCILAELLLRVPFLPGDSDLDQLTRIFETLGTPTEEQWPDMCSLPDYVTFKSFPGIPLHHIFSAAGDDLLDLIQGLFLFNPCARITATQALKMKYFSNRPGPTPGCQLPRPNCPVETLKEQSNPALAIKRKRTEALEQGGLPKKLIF
T1 sequence (P51946 whole entry partner): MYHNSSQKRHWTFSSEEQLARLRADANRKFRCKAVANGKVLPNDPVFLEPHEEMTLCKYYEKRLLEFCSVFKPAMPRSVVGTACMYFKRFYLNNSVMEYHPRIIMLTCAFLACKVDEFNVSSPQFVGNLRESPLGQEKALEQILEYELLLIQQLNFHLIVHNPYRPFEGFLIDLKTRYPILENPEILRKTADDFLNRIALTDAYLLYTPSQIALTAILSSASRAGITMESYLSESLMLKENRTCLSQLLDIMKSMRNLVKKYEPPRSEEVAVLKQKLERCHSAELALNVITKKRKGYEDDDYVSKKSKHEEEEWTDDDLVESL
T1 sequence (P51948 whole entry partner): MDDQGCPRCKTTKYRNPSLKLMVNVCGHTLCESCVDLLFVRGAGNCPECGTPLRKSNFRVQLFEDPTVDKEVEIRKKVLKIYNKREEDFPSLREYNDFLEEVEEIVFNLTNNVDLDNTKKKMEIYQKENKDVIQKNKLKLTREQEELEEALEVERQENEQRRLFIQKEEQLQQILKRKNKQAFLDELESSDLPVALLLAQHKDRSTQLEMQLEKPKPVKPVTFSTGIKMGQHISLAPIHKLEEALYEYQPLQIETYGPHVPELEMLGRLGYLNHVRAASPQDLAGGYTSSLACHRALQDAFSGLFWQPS

## C=CC(=O)Nc1cccc(Nc2nc(Nc3ccc(OCCOC)c(F)c3)ncc2F)c1 [Compound 2]
CDK7/cyclin H
  inhibition at 3 µM: 2.36%
CDK7/cyclin H; [1]
  remaining activity at 3 µM: 98.1%
CDK7/cyclin H; [2]
  remaining activity at 3 µM: 97.2%
ERK5/MAPK7
  inhibition at 3 µM: -0.37%
ERK5/MAPK7; [1]
  remaining activity at 3 µM: 101%
ERK5/MAPK7; [2]
  remaining activity at 3 µM: 99.9%
JAK2
  inhibition at 3 µM: -11.6%
JAK2; [1]
  remaining activity at 3 µM: 109%
JAK2; [2]
  remaining activity at 3 µM: 115%
JAK3
  inhibition at 3 µM: 97.4%
JAK3; [1]
  remaining activity at 3 µM: 2.53%
JAK3; [2]
  remaining activity at 3 µM: 2.73%
NEK6
  inhibition at 3 µM: -5.69%
NEK6; [1]
  remaining activity at 3 µM: 106%
NEK6; [2]
  remaining activity at 3 µM: 105%
SIK3
  inhibition at 3 µM: 7.93%
SIK3; [1]
  remaining activity at 3 µM: 91.3%
SIK3; [2]
  remaining activity at 3 µM: 92.8%
STK38/NDR1
  inhibition at 3 µM: 6.79%
STK38/NDR1; [1]
  remaining activity at 3 µM: 92.7%
STK38/NDR1; [2]
  remaining activity at 3 µM: 93.7%
TAK1
  inhibition at 3 µM: 27.3%
TAK1; [1]
  remaining activity at 3 µM: 73.4%
TAK1; [2]
  remaining activity at 3 µM: 72%
